Data reported in patent publication US7935722B2 (Eli Lilly and Company, priority 2005, dated 2011).
Read-outs that look alike come from different tables or passages of the source.

Experiments:
[1] = biological target: T1, human androgen receptor (AR) (Homo sapiens, UniProt P10275); assay: C2C12 AR/ARE reporter assay; format: cell-based
T1 construct: expressed in transfected cells; host or cells: mouse myoblast C2C12 cells, transiently co-transfected
T1 sequence (P10275 1-920): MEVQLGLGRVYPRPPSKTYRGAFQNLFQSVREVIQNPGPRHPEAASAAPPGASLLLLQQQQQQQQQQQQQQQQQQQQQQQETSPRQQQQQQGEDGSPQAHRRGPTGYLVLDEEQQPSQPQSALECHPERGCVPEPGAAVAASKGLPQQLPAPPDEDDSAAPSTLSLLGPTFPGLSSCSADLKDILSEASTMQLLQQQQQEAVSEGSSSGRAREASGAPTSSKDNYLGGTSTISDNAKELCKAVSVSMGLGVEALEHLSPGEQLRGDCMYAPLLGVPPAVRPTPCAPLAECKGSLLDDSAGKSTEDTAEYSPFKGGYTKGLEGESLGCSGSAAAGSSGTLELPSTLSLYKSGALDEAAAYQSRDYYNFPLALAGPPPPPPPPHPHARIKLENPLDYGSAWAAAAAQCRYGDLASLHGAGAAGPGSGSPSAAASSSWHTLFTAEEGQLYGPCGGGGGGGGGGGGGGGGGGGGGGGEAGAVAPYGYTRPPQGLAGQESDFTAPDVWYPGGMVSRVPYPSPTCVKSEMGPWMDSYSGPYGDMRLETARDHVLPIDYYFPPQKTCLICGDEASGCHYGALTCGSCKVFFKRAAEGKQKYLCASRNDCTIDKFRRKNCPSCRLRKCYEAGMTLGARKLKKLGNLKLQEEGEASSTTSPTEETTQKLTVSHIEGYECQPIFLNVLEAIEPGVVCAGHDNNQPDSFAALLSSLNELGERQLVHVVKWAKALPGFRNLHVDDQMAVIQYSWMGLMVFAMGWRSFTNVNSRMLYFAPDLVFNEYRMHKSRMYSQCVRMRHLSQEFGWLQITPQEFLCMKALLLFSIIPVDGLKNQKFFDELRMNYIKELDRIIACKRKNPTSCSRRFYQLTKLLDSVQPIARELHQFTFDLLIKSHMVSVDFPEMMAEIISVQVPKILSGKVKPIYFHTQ
Protocol: As an indicator of agonist activity in muscle tissue, the C2C12 AR/ARE reporter assay is performed. Briefly, mouse myoblast C2C12 cells are co-transfected using FuGENE™. […] Cells are transfected in T150 cm^2 flasks in DMEM media with 4% or 10% Fetal Bovine Serum […]. After a 5 hour incubation, transfected cells are trypsinized, plated in 96 well dishes in DMEM media containing 10% charcoal-stripped FBS, incubated for 2 h and then exposed to various concentrations of test compounds ranging from about 0.01 nM to 10 μM. After 48 h of incubations with compounds, cells are lysed and luciferase activity is determined using standard techniques. Data is fit to a 4 parameter-fit logistics to determine EC50 values. The % efficacy is determined versus maximum stimulation obtained with 10 nM methyltrienolone. […]

[2] = biological target: T2, human AR (androgen receptor) (Homo sapiens, UniProt P10275); assay: Steroid hormone nuclear receptor binding assay, AR binding
T2 construct: expressed in transfected cells; host or cells: 293 cells (293-AR lysate)
T2 sequence (P10275 1-920): T1 sequence (P10275 1-920)
Protocol: Cell lysates from 293 cells overexpressing human GR (glucocorticoid receptor), AR (androgen receptor), MR (mineralocorticoid receptor) or PR (progesterone receptor) are used for competition binding assays to determine Ki values for test compounds. […] Competing compounds are added at various concentrations ranging from about 0.01 nM to 10 μM. Non-specific binding is determined in the presence of 500 nM dexamethasone for GR binding, 500 nM aldosterone for MR binding, or 500 nM methyltrienolone for AR and PR binding. The binding reaction (140 μl) is incubated for overnight at 4° C., then 70 μl of cold charcoal-dextran buffer (containing per 50 ml of assay buffer, 0.75 g of charcoal and 0.25 g of dextran) is added to each reaction. Plates are mixed 8 minutes on an orbital shaker at 4° C. Plates are then centrifuged at 3,000 rpm at 4° C. for 10 minutes. An aliquot of 120 μl of the mix is transferred to another 96-well plate and 175 μl of Wallac Optiphase “Hisafe 3” scintillation fluid is added to each well. Plates are sealed and shaken vigorously on an orbital shaker. After an incubation of 2 hrs, plates are read in a Wallac Microbeta counter. […] The Kd for ^3H-dexamethasone for GR binding, ^3H-methyltrienolone for AR binding, ^3H-aldosterone for MR binding, or ^3H-methyltrienolone for PR binding, is determined by saturation binding. The IC50 values for test compounds are converted to Ki using Cheng-Prusoff equation and the Kd determined by saturation binding assay. […]

[3] = C2C12 AR/ARE reporter assay, average of n trials, read-out: C2C12 % Efficacy
[4] = C2C12 AR/ARE reporter assay, average of n trials, read-out: C2C12 EC50
[5] = average of n trials, read-out: AR binding Ki
[6] = C2C12, read-out: C2C12 % Efficacy

Row | SMILES | Emax [1, 3] [%] | EC50 [1, 4] [nM] | Ki [2, 5] [nM] | EC50 [1] [nM] | Emax [1, 6] [%] | Ki [2] [nM]
1 | CC(C)C(=O)NC1CCc2c(c3cc(Cl)ccc3n2Cc2ccc(O)cc2)C1 (stereo not drawn) [Example 103, N-[6-Chloro-9-(4-hydioxy-benzyl)-2,3,4,9-tetrahydro-1H-carbazol-3-yl]-isobutyramide] | 32.8 | 293 | 51.4 |  |  | 
2 | O=C(NC1CCc2c(c3cc(Br)ccc3n2Cc2cccc(F)c2)C1)C(F)(F)F (stereo not drawn) [Example 174] | 65.2 | 88 | 7.1 |  |  | 
3 | N#Cc1ccc2c(c1)c1c(n2Cc2cccc(F)c2)CC[C@@H](NC(=O)C2CC2)C1 [Example 194, (R)-Cyclopropanecarboxylic acid[6-cyano-9-(3-fluorobenzyl)-2,3,4,9-tetrahydro-1H-carbazol-3-yl]amide] |  |  |  | 2 | 95.5 | 1.3
4 | CC(C)Oc1ccc2c(c1)c1c(n2Cc2cccc(F)c2)CCC(NC(=O)C(C)C)C1 (stereo not drawn) [Example 94, N-[9-(3-Fluoro-benzyl)-6-isopropoxy-2,3,4,9-tetrahydro-1H-carbazol-3-yl]-isobutyramide] |  |  |  | 41 | 101 | 38.3
5 | CCC(=O)NC1CCc2c(c3cc(OC)ccc3n2Cc2ccccc2)C1 (stereo not drawn) [Example 66, N-(9-Benzyl-6-methoxy-2,3,4,9-tetrahydro-1H-carbazol-3-yl)-propionamide] | 79.8 | 19.2 | 6.9 |  |  | 
6 | Cc1nc(Cn2c3c(c4cc(C#N)ccc42)CC(NC(=O)C(C)C)CC3)cs1 (stereo not drawn) [Example 150, N-[6-Cyano-9-(2-methyl-thiazol-4-ylmethyl)-2,3,4,9-tetrahydro-1H-carbazol-3-yl]-isobutyramide] |  |  |  | 98.8 | 91.3 | 19.6
7 | CC(C)C(=O)NC1CCc2c(c3cc(-c4cccnc4)ccc3n2Cc2cccc(F)c2)C1 (stereo not drawn) [Example 132] |  |  |  | 5.4 | 83.9 | 7.4
8 | CN(C)C(=O)NC1CCc2c(c3cc(OC(F)(F)F)ccc3n2Cc2cccc(F)c2)C1 (stereo not drawn) [Example 169] | 76.8 | 6.5 | 8.3 |  |  | 
9 | COc1cccc2c3c(n(Cc4ccccc4)c12)CCC(NC(=O)C(C)C)C3 (stereo not drawn) [Example 76] |  |  |  | 1710 | 58.1 | 478
10 | CC(C)C(=O)N[C@@H]1CCc2c(c3cc(C(=O)O)ccc3n2Cc2cccc(F)c2)C1 [Example 188] | 82.4 | 794 | 952 |  |  | 
11 | CC(C)C(=O)N[C@@H]1CCc2c(c3cc(-c4cccnc4)ccc3n2Cc2cccc(F)c2)C1 [Example 133] |  |  |  | 7.5 | 66.4 | 4.6
12 | CC(C)C(=O)NC1CCc2c(c3cc(C#N)cc(F)c3n2Cc2cccc(F)c2)C1 (stereo not drawn) [Example 121, N-[6-Cyano-8-fluoro-9-(3-fluoro-benzyl)-2,3,4,9-tetrahydro-1H-carbazol-3-yl]-isobutyramide] |  |  |  | 6.2 | 110 | 2.9
13 | CC(C)C(=O)NC1CCc2c(c3cc(-c4cncnc4)ccc3n2Cc2cccc(F)c2)C1 (stereo not drawn) [Example 137] |  |  |  | 17.5 | 79.4 | 16.2
14 | CC(C)C(=O)NC1CCc2c(c3cc(Cl)ccc3n2Cc2cccc(C(F)(F)F)c2)C1 (stereo not drawn) [Example 83] |  |  |  | 85.1 | 93.1 | 29.5
15 | CC(C)C(=O)NC1CCc2c(c3c(Cl)c(C#N)ccc3n2Cc2cccc(F)c2)C1 (stereo not drawn) [Example 117, N-[5-Chloro-6-cyano-9-(3-fluoro-benzyl)-2,3,4,9-tetrahydro-1H-carbazol-3-yl]-isobutyramide] |  |  |  | 12 | 76.7 | 4.5
16 | CCOc1ccc2c(c1)c1c(n2Cc2cccc(F)c2)CCC(NC(=O)C(C)C)C1 (stereo not drawn) [Example 93, N-[6-Ethoxy-9-(3-fluoro-benzyl)-2,3,4,9-tetrahydro-1H-carbazol-3-yl]-isobutyramide] |  |  |  | 5 | 82.4 | 6.8
17 | CC(C)C(=O)NC1CCc2c(c3cc(-c4ccc(F)nc4)ccc3n2Cc2cccc(F)c2)C1 (stereo not drawn) [Example 135] | 66 | 62.3 | 20.4 |  |  | 
18 | Cc1csc(Cn2c3c(c4cc(C#N)ccc42)C[C@H](NC(=O)C(C)C)CC3)n1 [Example 156, (R)-N-[6-Cyano-9-(4-methyl-thiazol-2-ylmethyl)-2,3,4,9-tetrahydro-1H-carbazol-3-yl]-isobutyramide] |  |  |  | 30.5 | 79.4 | 10.8
19 | CC(C)C(=O)NC1CCc2c(c3cc(OC(F)(F)F)ccc3n2Cc2cccc(F)n2)C1 (stereo not drawn) [Example 162, N-[9-(6-Fluoro-pyridin-2-ylmethyl)-6-trifluoromethoxy-2,3,4,9-tetrahydro-1H-carbazol-3-yl]-isobutyramide] |  |  |  | 9.2 | 81.7 | 8.6
20 | COc1cccc(Cn2c3c(c4cc(OC)ccc42)CC(NC(=O)C(C)C)CC3)c1 (stereo not drawn) [Example 73] |  |  |  | 227 | 54.7 | 52.1
21 | CC(C)C(=O)NC1CCc2c(c3cc(C#N)ccc3n2Cc2ccccc2O)C1 (stereo not drawn) [Example 107, N-[6-Cyano-9-(2-hydroxy-benzyl)-2,3,4,9-tetrahydro-1H-carbazol-3-yl]-isobutyrarmide] |  |  |  | 0.5 | 86.2 | 3.1
22 | CC(C)C(=O)N[C@@H]1CCc2c(c3cc(C#N)ccc3n2Cc2csc(Cl)n2)C1 [Example 154, (R)-N-[9-(2-Chloro-thiazol-4-ylmethyl)-6-cyano-2,3,4,9-tetrahydro-1H-carbazol-3-yl]-isobutyramide] |  |  |  | 4.4 | 119 | 2.2
23 | COc1ccccc1Cn1c2c(c3cc(C#N)ccc31)CC(NC(=O)C(C)C)CC2 (stereo not drawn) [Example 105, N-[6-Cyano-9-(2-methoxy-benzyl)-2,3,4,9-tetrahydro-1H-carbazol-3-yl]-isobutyramide] |  |  |  | 30.7 | 97.5 | 7.7
24 | CN(C)C(=O)NC1CCc2c(c3cc(C#N)ccc3n2Cc2cccc(F)c2)C1 (stereo not drawn) [Example 178, 3-[6-Cyano-9-(3-fluorobenzyl)-2,3,4,9-tetrahydro-1H-carbazol-3-yl]-1,1-dimethylurea] | 81.8 | 11.5 | 5.9 |  |  | 
25 | O=C(NC1CCc2c(c3cc(Br)ccc3n2Cc2cccc(F)c2)C1)C1CC1 (stereo not drawn) [Example 170, Cyclopropanecarboxylic acid [6-bromo-9-(3-fluoro-benzyl)-2,3,4,9-tetrahydro-1H-carbazol-3-yl]-amide] |  |  |  | 22.4 | 67.2 | 5.9
26 | CC(C)C(=O)NC1CCc2c(c3cc(C#N)ccc3n2Cc2ccccc2)C1 (stereo not drawn) [Example 85] |  |  |  | 3.8 | 79.8 | 4.6
27 | CC(C)C(=O)NC1CCc2c(c3cc(Cl)ccc3n2Cc2ccccc2[N+](=O)[O-])C1 (stereo not drawn) [Example 104, N-[6-Chloro-9-(2-nitro-benzyl)-2,3,4,9-tetrahydro-1H-carbazol-3-yl]-isobutyramide] | 71.6 | 555 | 22.5 |  |  | 
